A melting point compilation (Tetko et al.; mined from patent text by program, amines drawn as free bases though some values may be those of a salt)

Row | Compound | melting point [°C]
1 | CCCCCCCCOc1cc(N)c(OCOC)c(OC)c1 | 56 to 57
2 | CNC(=O)C(NC(=O)c1ccc(F)cc1C(F)(F)F)C(C[N+](=O)[O-])c1ccccc1 (centres undefined) | 223
3 | COc1ccc2[nH]c(SCc3ncnc(N4CCOCC4)c3C)nc2c1 | 129 to 131
4 | Cc1[nH]cnc1CSCCN=CNS(=O)(=O)c1ccccc1 | 48 to 51
5 | O=C(O)Cc1c(C(=O)c2ccccc2)[nH]c2cccc(Cl)c12 | 206 to 209
6 | [N-]=[N+]=NCC1=C(C(=O)O)N2C(=O)C(NC(=O)Cc3csc(=O)s3)C2SC1 (centres undefined) | 160
7 | C=CCOc1ccccc1S(=O)(=O)NC(=O)Nc1nc(C)cc(C)n1 | 199 to 200
8 | ClC(Cl)(Cl)C1Oc2ccc(C=NNc3ccccc3)cc2C(C(Cl)(Cl)Cl)O1 (centres undefined) | 191 to 192
9 | CC12CCC3c4cccc([N+](=O)[O-])c4CCC3C1CCC2O (centres undefined) | 151 to 152
10 | CC1(C)O[C@H]2CC(O)=C(O)C(=O)[C@H]2O1 | 153 to 154
11 | CCCCOCCOC(=O)NCCCCCCNC(=O)OCCOCCCC | 64 to 66
12 | O=C(O)C(Cl)(Cl)CCCCCCCCCCCCC(Cl)(Cl)C(=O)O | 114
13 | N=C(N)c1sccc1-c1ccc(CN2CCSC2)cc1 | 162 to 164
14 | CC(C)(C(N)=O)/C(F)=C(/F)c1ccc(Cl)cc1 | 99
15 | CCCCCCCCCCCOc1cccc(C(=O)O)c1 | 88
16 | CCOC(=O)C(Cc1ccc(-c2ccc([N+](=O)[O-])cc2)o1)(NC(C)=O)C(=O)OCC | 183 to 185
17 | O=C(O)C1CCC2CCCCC2N1 (centres undefined) | 173 to 176
18 | CCOC(=O)C(NC(=O)c1ccccc1)C(C)C (centres undefined) | 74
19 | CC(Br)=C(Br)CC(O)(Cn1cncn1)C1(Cl)CC1 (centres undefined) | 55 to 56
20 | CCOC(=O)Nc1ccc2c(c1)CCC2=O | 181 to 182
21 | O=S(=O)(c1c(-c2cc(Cl)cc(Cl)c2)[nH]c2c(Cl)cc(Cl)cc12)C(F)(F)F | 300 to 302
22 | CCCCCCCCCCCCCCCCCC(=O)N1C(CCCCCCCCCCCCCCCCC)NC(=O)CC1C(=O)O (centres undefined) | 107 to 111
23 | CC(C)(C)c1ccc(C(=O)Nc2cc[nH]c(=O)n2)cc1 | > 260
24 | CCOC(=O)C1=CCCCC1S(=O)(=O)Nn1cccc1 (centres undefined) | 85 to 86
25 | Cc1c(-c2cc(F)ccc2F)[nH]c(N)c1C#N | 146 to 147
26 | CCS(=O)(=O)c1nsc(NC(=O)N(C)C)c1C#N | 188 to 189
27 | Cc1c(C(=O)Nc2cc(Cl)c(N3CCC(N4CCOCC4)CC3)c(Cl)c2)cnn1-c1ccc(C(F)(F)F)cc1 | 252 to 254

Row | Compound | melting point [°C]
28 | Cc1nc2c(N)cc(Br)cc2n1O | 257 to 258
29 | C=CCOc1ccc(C(=O)C=Cc2ccc(OC)c(OC)c2)cc1 | 74.5 to 75
30 | CC(C)(C)OC(=O)NCCNC(=O)c1ccc(Br)cn1 | 118
31 | CCOC(=O)C(NC(=O)OCc1ccccc1)OCC (centres undefined) | 66 to 68
32 | COc1cc(Nc2c(C#N)cnc3cc(I)c(OC)cc23)c(Cl)cc1Cl | 253 to 254
33 | CC(C)NC(=O)c1c(F)cccc1S(=O)C(C)(C)C (centres undefined) | 120 to 135
34 | O=C1NC(=O)C(c2ccc3c(c2)CCCC3)S1 (centres undefined) | 157 to 158
35 | O=P(c1ccccc1)(c1ccccc1)c1cc(P(=O)(c2ccccc2)c2ccccc2)ncn1 | 213 to 215
36 | CNS(=O)(=O)c1cn(C)c2cc(C(F)(F)F)ccc2c1=O | 218 to 219
37 | COC(=O)CCCCCCc1ncsc1C(=O)O | 113 to 114
38 | C#Cc1ncn2c(C(F)F)cc(-c3ccc(C(F)(F)F)cc3)nc12 | 135
39 | CC(=O)Oc1ccc(C=CC(=O)C=Cc2ccc(OC(C)=O)cc2)cc1 | 167 to 168
40 | COc1c(C(=O)O)nc(Br)c(Cl)c1N | 154 to 156
41 | C#Cc1ccc(-c2nc(-c3ccccc3)nc(-c3ccc(C#C)cc3)n2)cc1 | 215
42 | COc1ccc(C(=NO)c2ccc(OC)cc2)cc1 | 131 to 132
43 | O=C(Nc1ccccc1)C1(C=Cc2ccccc2)SC=CC1OC(F)F (centres undefined) | 80 to 82
44 | CS(=O)(=O)c1ccc(-c2cc(=O)cc(C(=O)O)o2)cc1 | 269 to 271
45 | Cc1ccc2c(c1O)NC(S(=O)O)C1CC(C=CC(N)=O)=CN1C2=O (centres undefined) | 252 to 255
46 | C=CCN(CC=C)c1nc(NC(=O)Cc2ccsc2)n2oc(=O)nc2n1 | 159 to 161
47 | Cc1cc(CCC2(C)NC(=O)NC2=O)cc(C(C)(C)C)c1O (centres undefined) | 210 to 211
48 | CN1CCC2(C)c3cc(O)cc(Br)c3N(C)C12 (centres undefined) | 175 to 177
49 | CC[C@]12CC[C@H]3[C@@H](CC(C)C4=CC(=O)CC[C@@H]43)[C@@H]1CCC2=O (some centres undefined) | 141 to 149
50 | CCc1nn(Cc2n[nH]c(=O)o2)c(CC)c1Oc1cc(Cl)cc(Cl)c1 | 138 to 142
51 | CC=CC(Oc1nc(OC)cc(OC)n1)C(C)(C)C#N (centres undefined) | 91 to 92
52 | Cc1nn(C)c2c(=O)n(C)c(C)nc12 | 190 to 192
53 | CC(C)OC(=O)Nc1cccc(-c2ccnc3c(C(=O)c4ccsc4)cnn23)c1 | 122 to 124
54 | Nc1nc(NC2Cc3ccccc3N(S(=O)(=O)c3ccc(Cl)cc3Cl)C2)c2cn[nH]c2n1 (centres undefined) | 153 to 163

The remaining lines, values ahead:

Row | melting point [°C] | Compound
55 | 152 | CCOC(=O)C(=O)Nc1ccc(Br)c2cccnc12
56 | 114 to 116 | CCCCn1ncc(/C=C(\Cc2cc3c(cc2OC)CCO3)C(=O)O)c1-c1ccc(Cl)cc1OCc1c(Cl)cccc1C(=O)O
57 | 109 to 110 | COc1cc(C(C)C)c2c(c1)S(=O)(=O)N(COc1cc(Cl)nn1-c1ccccc1)C2=O
58 | 170 to 172 | CCn1cc(C2(c3cccc(-c4cccnc4F)c3)N=C(N)N(C)C2=O)cc1CO (centres undefined)
59 | 191 to 192 | COc1ccc(-c2nc(C)nn2-c2ccc(S(N)(=O)=O)cn2)cc1
60 | 232 to 234 | CCOC(=O)c1[nH]c2cc(Cl)cc(Cl)c2c1NCCC(=O)c1ccc(C(F)(F)F)cc1
61 | 148 | O=C(O)Cc1cccc(C(=O)c2ccc(Cl)cc2)c1
62 | 155 to 158 | COc1cc(Nc2c(C#N)cnc3cc(-c4cccc(CN5CCOCC5)c4)c(OC)cc23)c(Cl)cc1Cl
63 | 149 to 153 | CN1C(=O)CCC1(O)c1ccc(Cl)c(S(=O)(=O)NCCc2ccccc2)c1 (centres undefined)
64 | 240 to 242 | CCCCc1nc2cccc(C(=O)OC)c2n1Cc1ccc2nc(-c3ccccc3-c3nnn[nH]3)n(C)c(=O)c2c1
65 | 213 to 216 | COc1ccc(Nc2ccnc3nc(C)c(OC(=O)COC(C)=O)cc23)cc1
66 | 158 to 160 | Nc1ncc(-c2ccccc2)nc1Sc1ccc(Cl)cc1
67 | 65 to 67 | CCN1c2ncccc2C(=O)N(C)c2ccc(-c3cnn(C)c3)nc21
68 | 125 to 127 | COc1cn(C(c2ccccc2)c2ccccc2)c(=O)o1
69 | 210 to 212 | CC1(C)C=C(c2ccccc2)c2cccc3c2N1C(=O)C3=O
70 | 188 to 190 | CCOC(=O)CNC(=O)C[C@H]1O[C@@H](c2ccccc2)c2cc(Cl)ccc2N(C(C)C)C1=O (relative stereo)
71 | 153 to 154 | S=C(NCc1cccnc1)NC(=Nc1cccc2ccccc12)c1ccccc1
72 | 190 to 192 | CCOC(=O)N(c1ccc(Cl)cc1)c1ccccc1-n1nc(C(=O)O)nc1CCl
73 | 116 to 117 | OCc1cccc2sc(-c3ccccc3)nc12
74 | 114 to 116 | CCc1ccc2c3c(ccc(C=O)c13)-c1ccccc1-2
75 | 130 to 132 | CCn1cncc1/C=C/c1cn(-c2ccccc2)nc1OCc1ccc(OCc2nc(-c3ccco3)oc2C)c(OC)c1
76 | 108 | COc1ccc(Sc2cc3ccccc3nn2)cc1
77 | 103 to 106 | COc1cccc(COc2ncc(F)c(NN)n2)c1

Row | melting point [°C] | Compound
78 | 202 to 205 | COc1cccc(-c2ccc3[nH]c4c(ccc5cc[nH]c54)c3c2)c1
79 | 300 to 305 | NC(=O)Nc1ccccc1CCc1n[nH]c2c1c(=O)n(-c1ccccc1)c1ncccc21
80 | 258 to 259 | Cc1nc2c3c(c(C(=O)N(C)CC(C)O)cc2n1C)CCC1(Cc2ccccc2C1)N3 (centres undefined)
81 | 167 to 168 | COC(=O)c1ccc(CN2CCc3ccc(S(=O)(=O)Nc4cccc(Cl)c4)cc3C2)o1
82 | 185 to 187 | NC(=Nc1cccc(CNCCC(=O)Nc2ccc3c(c2)CCN3Cc2cccc3ccccc23)c1)c1cccs1
83 | 253 to 254 | CS(=O)(=O)c1ccc(-c2nn(Cc3ccncc3)c(=O)cc2-c2ccc(F)cc2)cc1
84 | 168 to 169 | CC(C)(C)OC(=O)Nc1ccc(-c2ccc(F)cc2)cc1NC(=O)CC(=O)c1sccc1Cl
85 | 184 to 185 | O=c1c2ccccc2oc2cccnc12
86 | 217 to 218 | Cc1cc2c(-c3ccccc3C)c(C#N)n(C)c(=O)c2cc1C
87 | 128 to 130 | CCCCc1cn(CCCC)c(=O)n1Cc1ccc(-c2cnccc2-c2nnn[nH]2)cc1
88 | 123 to 124 | CCCc1nn(-c2ccc(C(F)(F)F)cn2)cc1CCCCOc1cc(CCC(=O)O)n(-c2ccccc2)n1
89 | > 300 | CC(=O)Nc1nc(O)c2cc(C=Cc3ccc(C(=O)OC(C)=O)cc3)cnc2n1
90 | 197 to 199 | CC(=O)N1c2cscc2C(=O)N(C)c2ccccc21
91 | 156 to 159 | Cc1ccc2c(c1)Oc1ccc([N+](=O)[O-])cc1C(=O)N2C
92 | 162 to 165 | CCc1ccc2c(c1)C=Cc1cc(CC)ccc1C2c1cn(Cc2nc(C(=O)O)cs2)c(=O)[nH]c1=S
93 | 290 | CCCn1c(=O)c2[nH]c(-c3ccc4c(c3)OCCO4)nc2n(Cc2ccccc2)c1=O
94 | 66 | O=C1c2ccccc2C(=O)N1CCCCN(CCCCN1C(=O)c2ccccc2C1=O)CCOc1cccc2c1SCCC2
95 | 113 to 114 | CCOC(=O)c1sc(Cl)nc1-c1ccc(F)cc1
96 | 140 | CC(=O)NC1=C(c2cccc(C(F)(F)F)c2)C(=O)OC1
97 | 277 to 279 | O=C(O)c1cc(F)c2cccnc2c1O
98 | 95 to 98 | CN(C)C1CCCCC1Oc1ccc(Cc2c(-c3ccc(OCCN4CCCC4)cc3)sc3cc(O)ccc23)cc1 (centres undefined)
99 | 136 to 138 | Cc1ccc(N(c2ccc(C)cc2)c2ccc(C=Cc3ccccc3O)cc2)cc1
